Data as given in US20090068243A1, “Novel formulations for delivery of antiviral peptide therapeutics” (priority 2007, published 2009).

How the values were obtained:
HIV-Res = assay type: cell-based, HIV-1; conditions: resistant viral isolate "Res"
Text: Assessment of biological properties included measurement of antiviral activity against HIV-1 strains. In determining antiviral activity (e.g., one measure being the ability to inhibit transmission of HIV to a target cell) of the HIV fusion inhibitor peptides, an in vitro assay which has been shown, by data generated using peptides derived from the HR regions of HIV gp41, to be predictive of antiviral activity observed in vivo was used. […] These assays score for reduction of infectious virus titer employing the indicator cell lines MAGI or the CCR5 expressing derivative cMAGI. Both cell lines exploit the ability of HIV-1 tat to transactivate the expression of a β-galactosidase reporter gene driven by the HIV-LTR. The β-gal reporter has been modified to localize in the nucleus and can be detected with the X-gal substrate as intense nuclear staining within a few days of infection. […] The number of infected cells for each control and peptide dilution was determined with the CCD-imager, and then the IC50 was calculated (expressed in μg/ml).
Viruses resistant to the antiviral activity of a peptide consisting of a base sequence can be produced using standard laboratory methods. […] The cultures are maintained and monitored until syncytia are present. […] The second round of culture is maintained and monitored for presence of virus resistant to the antiviral activity of the peptide. […]

[1] = Thermal stability (Tm) by CD signal at 222 nm; assay type: physicochemical; conditions: CD at 222 nm, maximum of first derivative of thermal transition
Method: (§1) Assessment of biophysical parameters included measurement of helicity and thermal stability. Helicity was assessed by circular dichroism (“CD”) as follows. Briefly, CD spectra were obtained using a spectrometer equipped with a thermoelectric temperature controller. The spectra was obtained at 25° C. with 0.5 nanometer (nm) steps from 200 to 260 nm, with a 1.5 nm bandwith, and a typical averaging time of 4 seconds/step. After the cell/buffer blank was subtracted, spectra were smoothed using a third-order least-squares polynomial fit with a conservative window size to give random residuals. Raw ellipticity values were converted to mean residue ellipticity using standard methods, and plotted was the wavelength (from 200 to 260 nm) versus [θ]×10−3 (degrees cm^2/dmol). Percent helicity values were then calculated using standard methods (usually expressed as percent helicity at 10 μM, 25° C.). Assessment of thermal stability was performed by monitoring the change in CD signal at 222 nm as temperature was raised in 2° C. steps, with 1 minute equilibration times. The stability for each sample (e.g., HIV fusion inhibitor peptide), as represented by the Tm value, is the temperature corresponding to the maximum value of the first derivative of the thermal transition.

[2] = Helicity by circular dichroism (CD); assay type: physicochemical; conditions: usually percent helicity at 10 μM, 25° C.
Method: as §1

HIV-IIIB = conditions: 50% reduction in infectious virus titer
Text: Assessment of biological properties included measurement of antiviral activity against HIV-1 strains. […] These assays score for reduction of infectious virus titer employing the indicator cell lines MAGI or the CCR5 expressing derivative cMAGI. Both cell lines exploit the ability of HIV-1 tat to transactivate the expression of a β-galactosidase reporter gene driven by the HIV-LTR. The β-gal reporter has been modified to localize in the nucleus and can be detected with the X-gal substrate as intense nuclear staining within a few days of infection. The number of stained nuclei can thus be interpreted as equal to the number of infectious virions in the challenge inoculum if there is only one round of infection prior to staining. […] In the MAGI and cMAGI assays, a 50% reduction in infectious titer (Vn/Vo=0.5) is significant, and provides the primary cutoff value for assessing antiviral activity (“IC50” is defined as the concentration of active ingredient resulting in a 50% reduction in infectious virus titer). […] The number of infected cells for each control and peptide dilution was determined with the CCD-imager, and then the IC50 was calculated (expressed in μg/ml).

[3] = Intravenous pharmacokinetics in cynomolgus monkeys; assay type: in vivo, cynomolgus monkeys (Macaca fasicularis)
Method: For determining pharmacokinetic properties, an HIV fusion inhibitor peptide or a base sequence from which an HIV fusion inhibitor peptide is derived was dosed intravenously in cynomolgus monkeys (Macaca fasicularis) (other animal models may be used for determining pharmacokinetic properties, as known in the art). At various times post-dose, blood samples were drawn and plasma isolated by centrifugation. Plasma samples were stored frozen until analysis by LC-MS (liquid chromatography/mass spectrometry) in the electrospray, positive-ion mode. An HIV fusion inhibitor or base sequence was eluted from a C18 or C8 HPLC column with a gradient of acetonitrile in a buffer of 10 mM ammonium acetate, pH 6.8. At the time of analysis, plasma samples were deproteinated with either two or three volumes of acetonitrile containing 0.5% formic acid. Duplicate calibration standards in cynomolgus plasma samples were prepared at the same time as the samples and analyzed before and after the samples containing either HIV fusion inhibitor peptide or base sequence. Pharmacokinetic properties were calculated from the plasma concentration-time data using either mono-exponential or bi-exponential mathematical models. Models were derived by non-linear least squares optimization. A 1/C^2 weighting of concentrations was used. The following equations were used to calculate area-under the plasma concentration vs. time curve (AUC), total body clearance (Cl), and terminal elimination half-life (t ½).
Where A and B are intercepts and a and b are the rate constants of the exponential equations describing the distribution and elimination phases, respectively. When mono-exponential models were used, the “A” and “a” properties were eliminated.
Cl=Dose/AUC (expressed in L/K/hr)
t½=0.6903/b (expressed in hr)

With “Ac-TTWEAWDRAIAEYAARIEALLRAAQEQQEKLEAALREL-NH2 [SEQ ID NO:10, TTWEAWDRAIAEYAARIEALLRAAQEQQEKLEAALREL]” the “Antiviral Activity (μg/ml) HIV-Res IC50” value (HIV-Res) was <0.10 µg/mL, the “Tm (° C.)” value [1] was 75 °C and the “Helicity (%)” value [2] was 77%. For the same substance, the “Antiviral Activity (μg/ml) HIV-IIIB IC50” value (HIV-IIIB) was <0.10 µg/mL, the “biological half-life relative to base sequence, in words” value ([3]; comment on Table 2) was “increased biological half-life” and the clearance ([3]; cynomolgus monkey, plasma, iv, dosed intravenously) was < 0.333 mL/min/kg. It also gave a half-life ([3]; cynomolgus monkey, plasma, iv, dosed intravenously, read-out: Half-life (t ½; hr) (converted)) of 21 h.
